Experimental data as given in US20110305703A1, “ISOLATED VEGF-C AND VEGF-D PEPTIDES AND USES THEREOF” (Vegenics Pty Limited, priority 2008, published 2011).
Positions count from the first letter of the chain named. Numbers in names are those of the source. Entries after “also recorded” stand apart in the source; their conditions may differ. No end group written: not given here. *: point of attachment. Biotin = O=C1N[C@H]2[C@H](CS[C@H]2CCCCC(=O)*)N1

B1: E148D: VEGF-DΔNΔC variant with mutation E148D (protein)
chain: DYKDDDDKFYDIETLKVIDEEWQRTQCSPRETCVEVASELGKSTNTFFKPPCVNVFRCGGCCNDESLICMNTSTSYISKQLFEISVPLTSVPELVPVKVANHTGCKCLPTAPRHPYS
B2: L151V: VEGF-DΔNΔC variant with mutation L151V (protein)
chain: B1 chain with D64E, L67V
B3: S150T: VEGF-DΔNΔC variant with mutation S150T (protein)
chain: B1 chain with D64E, S66T
B4: N147Q: VEGF-DΔNΔC variant with mutation N147Q (protein)
chain: B1 chain with N63Q, D64E
B5: E149D: VEGF-DΔNΔC variant with mutation E149D (protein)
chain: B1 chain with D64E, E65D
B6: S150G: VEGF-DΔNΔC variant with mutation S150G (protein)
chain: B1 chain with D64E, S66G

Test system: VEGF-D neutralizing monoclonal antibody mAb 4A5 (VDnmAb)
Assay: ELISA of biotinylated synthetic peptides on streptavidin plates for VDnmAb binding
Details: 2nd peptide library; 10 pmol peptide; VDnmAb 2 μg/ml; signal more than two-fold greater than background considered positive
Source text: Peptides. A series of synthetic 15-mer peptides (peptides 1 to 35, SEQ ID NOs: 4 to 38 in FIG. 4B, which overlap each other by 12 amino acids) were synthesized (Mimotopes Pty Ltd, Melbourne, Australia). The peptides encompassed the VHD of human VEGF-D (SEQ ID NO: 3, FIG. 4A). Peptide 36 (SEQ ID NO: 39) represented an artificial sequence including a FLAG tag as a positive control for a commercial anti-FLAG mAb (M2; Sigma) that was used as control for non-specific binding to peptides 1 to 35 (SEQ ID NOs: 4 to 38). Biotin was included at the N-terminal of each peptide during synthesis, except that peptide 1 (SEQ ID NO: 4, representing the N-terminal of the VHD) has biotin at the C-terminal. The four-amino acid linker “SGSG” was introduced between the N-terminal of each peptide sequence and biotin to provide more flexibility to peptides after immobilization on streptavidin plates, except peptide 1 (SEQ ID NO: 4) that included the C-terminal linker “GSG”.
ELISA. Reacti-Bind streptavidin high-binding-capacity coated plates (Pierce) were coated with 10 pmol of each peptide in PBS, blocked with 5% milk in PBS-0.1% Tween 20, and incubated with 100 μl of VEGF-D neutralizing monoclonal antibody mAb 4A5 (referred to herein as VDnmAb) or M2 at 2 μg/ml for 1 h at room temperature. Bound mAb was detected with goat anti-mouse IgG coupled with HRP. ABTS was used as the substrate, and the absorbance was read at 405 nm in a multiwell plate reader.
In this 2nd peptide library, biotin was included at the N-terminal of each peptide, and the four-amino acid linker “SGSG” was introduced between each peptide sequence and the biotin residue to provide more flexibility to peptides after immobilization on streptavidin plates. ELISA-based analysis of the 2nd peptide library was carried out as for the 1st peptide library.
Peptide 67 (SEQ ID NO: 141, the same as peptide 36, SEQ ID NO: 39 from the 1st library) and peptide 68 (SEQ ID NO: 142), both containing the FLAG tag, were used as controls. In this 3rd peptide library, biotin was included at the N-terminal of each peptide except peptides 6, 12 and 14 (SEQ ID NOs: 80, 86 and 88) which have C-terminal biotin residues. To provide more flexibility to peptides after immobilization on streptavidin plates, an amino acid linker was introduced between biotin residues and the peptide sequence: “SGSG” for N-terminal biotin; “SGS” for C-terminal biotin. ELISA-based analysis of the 3rd peptide library was carried out as for the 1st peptide library, described in Example 1.

| VDnmAb binding to peptide (ELISA signal, absorbance at 405 nm) | Molecule |
| --- | --- |
| more effect | peptide 25 (SEQ ID NO: 64): 2nd library: mutation of two of the cysteine residues to serine (SGSGVNVFRCGGSSNEESL) |
| more effect | peptide 26 (SEQ ID NO: 65): 2nd library: mutation of two of the cysteine residues to serine (SGSGVNVFRSGGSCNEESL) |
| more effect | peptide 27 (SEQ ID NO: 66): 2nd library: mutation of two of the cysteine residues to serine (SGSGVNVFRSGGCSNEESL) |
| significant loss of antibody binding | peptide 28 (SEQ ID NO: 67): 2nd library: mutation of all three cysteine residues to serine (SGSGVNVFRSGGSSNEESL) |

| Molecule | VDnmAb binding to peptide (ELISA signal, absorbance at 405 nm) |
| --- | --- |
| peptide 23 (SEQ ID NO: 62): 2nd library: single mutation of cysteine in the binding region, C145S (SGSGVNVFRCGGSCNEESL) | very minor or no effect on VDnmAb binding |
| peptide 24 (SEQ ID NO: 63): 2nd library: single mutation of cysteine in the binding region, C142S (SGSGVNVFRSGGCCNEESL) | very minor or no effect on VDnmAb binding |

Same assay, conditions: 3rd peptide library; 10 pmol peptide; VDnmAb 2 μg/ml; signal more than two-fold over background considered positive

| Molecule | VDnmAb binding to peptide (ELISA signal, absorbance at 405 nm) |
| --- | --- |
| peptide 22 (SEQ ID NO: 96): 3rd library: deletion of R141 (SGSGVFCGGCCNEESL) | little or no effect on VDnmAb binding |
| peptide 23 (SEQ ID NO: 97): 3rd library: mutation N147Q (SGSGVFRCGGCCQEESL) | loss, even complete loss, of VDnmAb binding |
| peptide 24 (SEQ ID NO: 98): 3rd library: mutation N147A (SGSGVFRCGGCCAEESL) | loss, even complete loss, of VDnmAb binding |
| peptide 25 (SEQ ID NO: 99): 3rd library: variant with deletion of one of N147, E148, E149, S150 (SGSGVFRCGGCCEESL) | loss of VDnmAb binding |
| peptide 26 (SEQ ID NO: 100): 3rd library: mutation E148D (SGSGVFRCGGCCNDESL) | loss, even complete loss, of VDnmAb binding |
| peptide 27 (SEQ ID NO: 101): 3rd library: mutation E148A (SGSGVFRCGGCCNAESL) | loss, even complete loss, of VDnmAb binding |
| peptide 28 (SEQ ID NO: 102): 3rd library: variant with deletion of one of N147, E148, E149, S150 (SGSGVFRCGGCCNESL) | loss of VDnmAb binding |
| peptide 29 (SEQ ID NO: 103): 3rd library: mutation E149D (SGSGVFRCGGCCNEDSL) | loss, even complete loss, of VDnmAb binding |
| peptide 30 (SEQ ID NO: 104): 3rd library: mutation E149A (SGSGVFRCGGCCNEASL) | loss, even complete loss, of VDnmAb binding |
| peptide 31 (SEQ ID NO: 105): 3rd library: double mutation E148D/E149D (SGSGVFRCGGCCNDDSL) | loss, even complete loss, of VDnmAb binding |
| peptide 32 (SEQ ID NO: 106): 3rd library: double mutation E148A/E149A (SGSGVFRCGGCCNAASL) | loss, even complete loss, of VDnmAb binding |
| peptide 33 (SEQ ID NO: 107): 3rd library: variant with deletion of one of N147, E148, E149, S150 (SGSGVFRCGGCCNSL) | loss of VDnmAb binding |
| peptide 58 (SEQ ID NO: 132): 3rd library: deletion of most of the cysteine and glycine residues at positions 142 to 146 (Biotin-SGSGNVFNEESL) | loss, but not complete loss, of binding |
| peptide 59 (SEQ ID NO: 133): 3rd library: simultaneous changes of most of residues 142 to 146 to alanine (SGSGNVFAAGAAANEESL) | loss, but not complete loss, of binding |

Test system: VDnmAb
Assay: Western blot of conditioned media containing VEGF-DΔNΔC variants probed with VDnmAb
Assay type: binding
Details: conditioned media of 293-F cells; in comparison to VEGF-DΔNΔC
Source text: Site-directed mutagenesis. DNA encoding VEGF-DΔNΔC, a form of mature human VEGF-D tagged at the N-terminus with the FLAG octapeptide (FIG. 11; SEQ ID NO: 145), was subjected to site-directed mutagenesis by PCR to generate VEGF-DΔNΔC variants. Mutations were introduced by amplification with the following primers: N147Q with 5'-[…] NO: 146) and 5'-[…] with 5'-[…] NO: 148) and 5'-[…] with 5'-[…] NO: 150) and 5'-[…] with 5'-[…] NO: 152) and 5'-[…] with 5'-[…] NO: 154) and 5'-[…] with 5'-[…] NO: 156) and 5'-[…] with 5'-[…] NO: 158) and 5'-[…] NO: 159) (FIG. 12). The desired mutations, as well as the absence of any unwanted mutations, in the resulting DNA fragments were confirmed by nucleotide sequencing. Expression of VEGF-DΔNΔC variants. Plasmids containing DNA encoding VEGF-DΔNΔC or its variants were used for transient transfection of 293-F cells with the FreeStyle MAX 293 Expression System according to manufacturer's instructions (Invitrogen). Cells expressing each variant were cultured in serum-free medium, and 30 ml of conditioned media was collected 7 days post-transfection and used for analysis. Western Blot Analysis. Conditioned media containing different variants of VEGF-DΔNΔC were resolved by SDS-PAGE, transferred to nitrocellulose membrane, probed with M2 anti-FLAG or VDnmAb antibodies labeled with IRDye 800CW according to manufacturer's instructions (LI-COR), and detected with an Odyssey Infrared Imaging System (LI-COR).

| Molecule | VDnmAb binding to VEGF-DΔNΔC variant in Western blot |
| --- | --- |
| B1 | complete loss of VDnmAb binding |
| B2 | dramatic decrease in the amount of VDnmAb bound; also recorded: significantly affected VDnmAb binding |
| B3 | significant decrease in the amount of VDnmAb bound |
| B4 | significant decrease in the amount of VDnmAb bound |
| B5 | dramatic decrease in the amount of VDnmAb bound |
| B6 | significantly affected VDnmAb binding; also recorded: significantly affected, but did not eliminate, binding |
